Assay results published in article PMC6248945, “Antibacterial properties of the pituitary adenylate cyclase-activating polypeptide: A new human antimicrobial peptide” (PLoS ONE, 2018).
Read-outs that look alike come from different tables or passages of the source. Where a SMILES comes first, the peptide text is derived from it. Where no end group is shown, it is not given here.

Columns and labels:
Bacillus velezensis = settings: 20 h
[1] = test system: Actinobacillus pleuropneumoniae (4074); settings: 20 h
[2] = test system: Bacillus circulans (LSPQ3543); settings: 20 h
[3] = test system: Pseudomonas fluorescens (MF37); settings: 20 h
[4] = test system: Staphylococcus aureus (Newman); settings: 20 h
[5] = test system: Pseudomonas aeruginosa (PA14); settings: PA14, 20 h
[6] = test system: Pseudomonas putida (KT2440); settings: 20 h
Escherichia coli (JM109) = test: MIC, CLSI microdilution; type: cell-based; settings: MHB, 37 °C, 20h, OD read-out, at least triplicate
[7] = test system: Staphylococcus aureus (ATCC6538#P); settings: ATCC6538, 20 h
[8] = test system: Serratia marcescens (ATCC14756); settings: ATCC14756, 20 h
[9] = test system: Burkholderia cenocepacia (J2315); settings: 20 h
[10] = test system: Bacillus cereus (ATCC11778); settings: ATCC11778, 20 h
[11] = test system: Burkholderia thailendensis (ATCC700388); settings: CLSI microdilution, MHB, 37 °C, 20h, OD read-out; at least triplicate
[12] = test system: Bacillus amyloliquefaciens (LMG22478); settings: LMG22478, 20 h
Bacillus subtilis (PY79) = settings: PY79, 20 h
[13] = test system: various bacterial strains; settings: CLSI microdilution
human PAC1 receptor = biological target: T1, human PAC1 receptor (Homo sapiens, UniProt P41586); test: Radioligand binding assay, 125I-Ac-PACAP27
T1 construct: expressed in transfected cells
T1 sequence (P41586 21-468): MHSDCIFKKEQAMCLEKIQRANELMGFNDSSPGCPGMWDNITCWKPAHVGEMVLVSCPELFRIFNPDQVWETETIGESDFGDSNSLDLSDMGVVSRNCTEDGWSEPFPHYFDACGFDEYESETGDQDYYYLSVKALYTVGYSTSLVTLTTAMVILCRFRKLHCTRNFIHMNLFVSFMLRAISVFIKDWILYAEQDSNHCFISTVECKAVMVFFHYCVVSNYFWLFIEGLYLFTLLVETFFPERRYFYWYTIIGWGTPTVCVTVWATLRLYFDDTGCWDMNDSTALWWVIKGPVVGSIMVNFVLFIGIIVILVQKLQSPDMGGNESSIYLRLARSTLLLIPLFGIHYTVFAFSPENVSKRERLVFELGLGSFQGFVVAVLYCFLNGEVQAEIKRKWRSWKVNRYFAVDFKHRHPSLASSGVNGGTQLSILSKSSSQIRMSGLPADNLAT

human VPAC2 receptor = biological target: T2, human VPAC2 receptor (Homo sapiens, UniProt P41587); test: Radioligand binding assay, 125I-Ac-PACAP27; settings: CHO cells expressing human VPAC2, 0.05 nM 125I-Ac-PACAP27, 2h, room temperature
T2 construct: expressed in transfected cells
T2 sequence (P41587 24-438): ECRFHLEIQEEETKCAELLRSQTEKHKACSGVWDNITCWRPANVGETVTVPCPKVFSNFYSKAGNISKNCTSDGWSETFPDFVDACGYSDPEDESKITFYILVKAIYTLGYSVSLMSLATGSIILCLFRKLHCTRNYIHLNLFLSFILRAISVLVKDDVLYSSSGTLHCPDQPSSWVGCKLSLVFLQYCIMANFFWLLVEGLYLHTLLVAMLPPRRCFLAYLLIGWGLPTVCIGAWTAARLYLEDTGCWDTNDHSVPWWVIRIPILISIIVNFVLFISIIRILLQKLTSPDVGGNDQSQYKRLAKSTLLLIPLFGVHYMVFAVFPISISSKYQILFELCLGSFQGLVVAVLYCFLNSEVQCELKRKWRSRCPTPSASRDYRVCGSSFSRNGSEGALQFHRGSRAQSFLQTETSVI
Procedure: (§1) Chinese hamster ovary (CHO) cells stably and individually expressing human receptor PAC1, VPAC1 or VPAC2 were grown in Ham’s F12 medium supplemented with 10% of fetal bovine serum (FBS), 2 mM L-glutamine, 100 UI/mL of penicillin and streptomycin (P/S) and 400 μg/mL of G418. The cell line was maintained at 37 °C in a humidified atmosphere of 5% CO2 and passages were performed by trypsinization when cells reached about 80% confluence.
(§2) Acetylated PACAP27 was radioiodinated using the chloramine-T oxidation technique and purified on a Sep-Pak C18 cartridge (Waters, Milford, MA, USA). Binding assays were performed using CHO cells stably transfected with the human PAC1, VPAC1 or VPAC2 receptor isoform. Cells were seeded at a density of 150,000 cells/well in 24-well plates. The next day, cells were washed with binding buffer (0.1% BSA, 25 mM Tris–HCl, 25 mM MgCl2, pH 7.4) for 10 min at room temperature. The solution was replaced with a fresh solution containing 0.05 nM of ^125I-Ac-PACAP27 and increasing concentrations of peptide (10^−14 to 10^-5M). After 2h of incubation at room temperature, cells were washed twice with the binding buffer and then lysed with sodium hydroxide (0.1 M). Cell-bound radioactivity was quantified using a γ-counter. Results were expressed as percentage of specific binding of ^125I-Ac-PACAP27.

human VPAC1 receptor = biological target: T3, human VPAC1 receptor (Homo sapiens, UniProt P32241); test: Radioligand binding assay, 125I-Ac-PACAP27
T3 construct: expressed in transfected cells
T3 sequence (P32241 31-457): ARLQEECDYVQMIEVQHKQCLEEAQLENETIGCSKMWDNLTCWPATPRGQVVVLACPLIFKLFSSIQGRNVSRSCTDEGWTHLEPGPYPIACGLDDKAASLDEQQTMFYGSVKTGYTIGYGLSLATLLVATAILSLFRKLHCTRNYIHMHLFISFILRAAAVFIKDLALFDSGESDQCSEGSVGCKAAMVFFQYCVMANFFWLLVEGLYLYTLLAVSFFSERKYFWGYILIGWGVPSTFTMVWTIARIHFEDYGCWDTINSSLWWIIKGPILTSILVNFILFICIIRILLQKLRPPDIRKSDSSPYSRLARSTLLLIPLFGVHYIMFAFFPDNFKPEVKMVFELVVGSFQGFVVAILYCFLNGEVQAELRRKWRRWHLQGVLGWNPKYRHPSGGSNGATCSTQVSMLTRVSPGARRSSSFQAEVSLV
Procedure: as §1, §2

Red blood cells = test: Haemolytic activity; type: cell-based; settings: human red blood cells in PBS, 30 min or 3h, 37°C; at 45 μg/mL (PACAP38) or 37 μg/mL (PACAP(9–38)); absorbance 545 nm; 3 independent experiments in triplicate
Procedure: All experimental procedures were performed in accordance with regulations and ethical guidelines and approved by the institutional committee of the Institut National de la Recherche Scientifique-Institut Armand-Frappier. Blood from healthy human volunteers was collected into sodium citrate-buffered vacutainers. Blood donations were obtained from informed and consenting individuals according to institutionally approved procedures. Red blood cells were pelleted (700 x g; 10 min), washed three times with 9 volumes of PBS by centrifugation (700 x g; 10 min), and then resuspended in PBS. […] PBS-incubated red blood cells were considered as negative control and maximum lysis of erythrocytes was obtained by incubating the cells with 0.1% (v/v) Triton X-100. At the end of the incubation period, cells were pelleted (700 x g, 10 min) and 100 μL of each supernatant was used to evaluate the release of hemoglobin by measuring the absorbance at 545 nm. Results were obtained from 3 independent experiments performed in triplicate.

CHO-K1 = settings: various eukaryotic cells including CHO-K1; cited from earlier work
Excerpt: This peptide, well known for its pleiotropic activities in human, mediates its biological activities through the activation of three G protein-coupled receptors, named PAC1, VPAC1, and VPAC2[8]. […] The ...

CC[C@H](C)[C@H](NC(=O)CNC(=O)[C@H](CC(=O)O)NC(=O)[C@H](CO)NC(=O)[C@@H](N)Cc1c[nH]cn1)C(=O)N1Cc2ccccc2C[C@H]1C(=O)N[C@H](C(=O)N[C@@H](CC(=O)O)C(=O)N[C@@H](CO)C(=O)N[C@@H](Cc1ccc(O)cc1)C(=O)N[C@@H](CO)C(=O)N[C@@H](CCCNC(=N)N)C(=O)N[C@@H](Cc1ccc(O)cc1)C(=O)N[C@@H](CCCNC(=N)N)C(=O)N[C@@H](CCCCN)C(=O)N[C@@H](CCC(N)=O)C(=O)N[C@@H](CCSC)C(=O)N[C@@H](C)C(=O)N[C@H](C(=O)N[C@@H](CCCCN)C(=O)N[C@@H](CCCCN)C(=O)N[C@@H](Cc1ccc(O)cc1)C(=O)N[C@@H](CC(C)C)C(=O)N[C@@H](C)C(=O)N[C@@H](C)C(=O)N[C@H](C(=O)N[C@@H](CC(C)C)C(N)=O)C(C)C)C(C)C)[C@@H](C)O [compound 8, [Tic^6]PACAP27]
MIC, Bacillus velezensis (Bacillus velezensis): >160 µg/mL
MIC, Actinobacillus pleuropneumoniae [1]: >160 µg/mL
MIC, Bacillus circulans (LSPQ3543) [2]: >160 µg/mL
MIC, Pseudomonas fluorescens (MF37) [3]: >160 µg/mL
MIC, Staphylococcus aureus (Newman) [4]: >160 µg/mL
MIC, Pseudomonas aeruginosa (PA14) [5]: >160 µg/mL
MIC, Pseudomonas putida (KT2440) [6]: >160 µg/mL
MIC, Escherichia coli (JM109) (Escherichia coli (JM109)): >160 µg/mL
MIC, Staphylococcus aureus (ATCC6538#P) [7]: >160 µg/mL
MIC, Serratia marcescens (ATCC14756) [8]: >160 µg/mL
MIC, Burkholderia cenocepacia (J2315) [9]: >160 µg/mL
MIC, Bacillus cereus (ATCC11778) [10]: >160 µg/mL
MIC, Burkholderia thailendensis (ATCC700388) [11]: >160 µg/mL
MIC, Bacillus amyloliquefaciens [12]: >160 µg/mL
MIC, Bacillus subtilis (PY79) (Bacillus subtilis (PY79)): >160 µg/mL
MIC (ability to reduce bacterial growth, tested strains) [13]: > 160 µg/mL

CSCC[C@H](NC(=O)[C@H](CCC(N)=O)NC(=O)[C@H](CCCCN)NC(=O)[C@H](CCCN=C(N)N)NC(=O)[C@H](Cc1ccc(O)cc1)NC(=O)[C@H](CCCN=C(N)N)NC(=O)[C@H](CO)NC(=O)[C@H](Cc1ccc(O)cc1)NC(=O)[C@@H](N)CO)C(=O)N[C@@H](C)C(=O)N[C@H](C(=O)N[C@@H](CCCCN)C(=O)N[C@@H](CCCCN)C(=O)N[C@@H](Cc1ccc(O)cc1)C(=O)N[C@@H](CC(C)C)C(=O)N[C@@H](C)C(=O)N[C@@H](C)C(=O)N[C@H](C(=O)N[C@@H](CC(C)C)C(=O)NCC(=O)N[C@@H](CCCCN)C(=O)N[C@@H](CCCN=C(N)N)C(=O)N[C@@H](Cc1ccc(O)cc1)C(=O)N[C@@H](CCCCN)C(=O)N[C@@H](CCC(N)=O)C(=O)N[C@@H](CCCN=C(N)N)C(=O)N[C@H](C(=O)N[C@@H](CCCCN)C(=O)N[C@@H](CC(N)=O)C(=O)N[C@@H](CCCCN)C(N)=O)C(C)C)C(C)C)C(C)C [compound 10, PACAP(9–38)] (H-SYSRYRKQMAVKKYLAAVLGKRYKQRVKNK-NH2)
IC50 (human PAC1 receptor): > 1000 nM
IC50 (human PAC1 receptor; PAC1 pIC50, CHO cells expressing human PAC1, 0.05 nM 125I-Ac-PACAP27, 2h, room temperature): 1350 nM
IC50 (human VPAC2 receptor; 95% confidence limits in parentheses): > 1000 nM
IC50 (human VPAC2 receptor; read-out: VPAC2 pIC50 (converted)): 1700 nM
IC50 (human VPAC1 receptor): > 1000 nM
IC50 (human VPAC1 receptor; VPAC1 pIC50, CHO cells expressing human VPAC1, 0.05 nM 125I-Ac-PACAP27, 2h, room temperature): 5130 nM
Haemolytic activity (Red blood cells): do not exert a very significant haemolytic activity

[Arg^17]PACAP(11–38) (SRYRKQRAVKKYLAAVLGKRYKQRVKNK; ends and bridges not checked; UniProt P18509 142-169, looked up, variant M17R)
Cytotoxic effect (CHO-K1): no cytotoxic effect
